Data on 7 compounds can be found in paper PMC3423353, “Natural Iminosugar (+)-Lentiginosine Inhibits ATPase and Chaperone Activity of Hsp90” (PLoS ONE, 2012).

SMILES strings stand for the structures.

One assay concerns the target T1, Hsp90 chaperone activity (Homo sapiens, UniProt P07900).
T1 construct: purchased Assay Designs (Ann Arbor, MI, USA); host or cells: E. coli
Put plainly: Citrate synthase thermal aggregation assay (chaperone activity). Format: biochemical. Particulars: 0.075 µM CS, 0.075 µM Hsp90, 0.3 µM compound (4-fold molar excess), 43°C, light scattering. The protocol: The ability of compounds 1, 3 and 4 to inhibit the chaperone activity of Hsp90 was also evaluated monitoring the citrate synthase (CS) thermal induced aggregation in the presence of Hsp90 [24], with or without these compounds. […] The spontaneous aggregation of CS at 43°C (♦) and the aggregation of CS at 43°C in the presence of 0.075 µM Hsp90 (Δ) or of 0.075 µM Hsp90 and 0.3 µM compound 1 (▪), 0.3 µM compound 2 (•), 0.3 compound 3 (□), or 0.3 µM compound 4 (○) are shown. Chaperone activity was evaluated as reported elsewhere by monitoring the thermal-induced aggregation of Citrate synthase (CS) in absence or in presence of a stoichiometric amount of Hsp90, and with or without a 4-fold molar excess of each testing compound. Aggregation was initiated by unfolding CS (0.075 µM) incubating the protein in 40 mM HEPES–KOH, pH 7.5 at 43°C. Aggregation was monitored by measuring light scattering at right angles with Perkin Elmer LS 55 fluorimeter in stirred and thermostated quartz cells. Both the emission and excitation wavelengths were set at 500 nm, and the band pass was 2 nm. Kinetics traces reported here are the averages of two measurements.

For a further assay, the target named is T2, Hsp90 (Homo sapiens, UniProt P07900).
T2 construct: purchased Assay Designs (Ann Arbor, MI, USA); host or cells: E. coli
Put plainly: SPR binding assay on immobilized Hsp90. The procedure: Radicicol was used as positive controls.
SPR analyses were performed as describe elsewhere, [38]. Briefly, SPR analyses were performed using a Biacore 3000 optical biosensor equipped with research-grade CM5 sensor chips (GE Healthcare). Using this platform, two separate recombinant Hsp90 surfaces, a BSA surface and an unmodified reference surface were prepared for simultaneous analyses. […] Included in each analysis were multiple blank samples of running buffer alone. Binding experiments were performed at 25°C, using a flow rate of 50 µL min^−1, with 60 s monitoring of association and 200 s monitoring of dissociation. […] Sensorgram elaborations were performed using the Biaevaluation software provided by GE Healthcare.

In assay [1] the target is T3, human full length recombinant Hsp90 (Homo sapiens, UniProt P07900).
T3 construct: purchased Assay Designs (Ann Arbor, MI, USA); host or cells: E. coli
Put plainly: Competitive fluorescence polarization assay with fluorescent geldanamycin probe (fGDA). Format: binding. Particulars: concentration up to 100 µM, added before or after fGDA. The procedure:
In an effort to identify the Hsp90 region involved in (+)-lentiginosine binding, we first performed some fluorescence polarization assays using a fluorescent geldanamycin probe (fGDA) to evaluate if this compound could interact with the ATP-binding pocket of Hsp90 [25].
Binding of compound 1 to human full length recombinant Hsp90 was determined by a competitive binding fluorescence polarization assay using a fluorescent geldanamycin probe, as reported elsewhere.
On the technique in general: In fluorescence polarisation assays a small probe gives low polarisation when free and higher when bound to something large.

In another assay the target is T4, Hsp90 ATPase activity (Homo sapiens, UniProt P07900).
T4 construct: purchased Assay Designs (Ann Arbor, MI, USA); host or cells: E. coli
The experiment in a line: ATP hydrolysis inhibition (ADP Hunter Plus assay). As to conditions: 40 nM Hsp90, 100 µM ATP; for inhibition of the ATPase activity of Hsp90: 60 min, 40°C, different concentrations. In kind it is biochemical. The procedure: To evaluate the effect of interacting compounds on Hsp90 biological activity, the ATPase activity of the enzyme was tested in the presence of the most affine compounds (1, 3 and 4); […]. (−)-Lentiginosine was used as negative control.
The Discover RX ADP HunterTM Plus Assay kit was used following the manufacturer’s instructions. […]. ADP generation was measured using a Perkin Elmer LS 55 fluorimeter (540 nm excitation and 620 nm emission). Fluorescence intensity values measured for Hsp90 without any testing compound was assumed as 100% of enzyme activity. The background reaction rate was measured in a reaction lacking enzyme or substrate and subtracted from the experimental rates.

Setting [2] is: immobilized Hsp90, 25°C, single-site bimolecular model.

`O[C@@H]1[C@@H](O)CN2CCCC[C@@H]12` [Compound 1, (+)-lentiginosine]: on Hsp90 chaperone activity, the “inhibition of Hsp90 chaperone activity (CS aggregation kinetics)” value (“inhibition … (CS aggregation kinetics)” for short) was “inhibition of Hsp90 chaperone activity”. At Hsp90 (setting [2]), the Kd – broadly, the free concentration of one partner at which half of the binding sites on the other are occupied at equilibrium, for simple one-to-one binding – came to 24.7 ± 0.6 nM and the koff is 1.86±0.31 10^-3 1/s. Also, the “displacement of fGDA from Hsp90” value in assay [1] is given as “unable to displace fGDA”. In addition, on Hsp90 ATPase activity, the “ATPase inhibitory power compared with 17-AAG” value was “inhibitory power higher than that measured for 17-AAG” and the “inhibition of the ATPase activity of Hsp90” value is listed as “inhibit the ATPase activity of Hsp90 in a concentration dependent manner”.
In the case of `OCCc1cn([C@H]2CCN3C[C@H](O)[C@@H](O)[C@@H]3C2)nn1` [Compound 5], at Hsp90 (setting [2]), binding was put at a Kd of 116 ± 1.6 nM and the koff is 2.55±0.35 10^-3 1/s.
Take `CCCCCCc1cn([C@H]2CCN3C[C@H](O)[C@@H](O)[C@@H]3C2)nn1` [Compound 4]: the “inhibition … (CS aggregation kinetics)” value at Hsp90 chaperone activity is reported as “inhibitory effects were less evident”. Moreover, at Hsp90 (setting [2]), binding was put at a Kd of 45.9 ± 0.5 nM and the koff is given as 2.05±0.42 10^-3 1/s. Moreover, on Hsp90 ATPase activity, the “inhibition of the ATPase activity of Hsp90” value is “inhibit the ATPase activity of Hsp90 in a concentration dependent manner”.
For `N=C(N)NCCC[C@H](N)C(=O)N[C@H]1CCN2C[C@H](O)[C@@H](O)[C@@H]2C1` [Compound 3], at Hsp90 chaperone activity, the “inhibition … (CS aggregation kinetics)” value was “inhibitory effects were less evident”. In addition, on Hsp90 (setting [2]), the Kd amounted to 108 ± 1.1 nM and the koff is recorded as 2.18±0.23 10^-3 1/s. Further, the “inhibition of the ATPase activity of Hsp90” value at Hsp90 ATPase activity is “inhibit the ATPase activity of Hsp90 in a concentration dependent manner”.
Consider `N[C@H]1CCN2C[C@H](O)[C@@H](O)[C@@H]2C1` [Compound 7], for which, at Hsp90 (setting [2]), binding was put at a Kd of 1009 ± 5.8 nM and the koff is listed as 25.6±2.1 10^-3 1/s.
As for `O[C@H]1[C@H](O)CN2CCCC[C@H]12` [Compound 2, (−)-lentiginosine], the “inhibition … (CS aggregation kinetics)” value against Hsp90 chaperone activity is listed as “not able to inhibit the chaperone activity of Hsp90”. Further, the “interaction with immobilized Hsp90” value on Hsp90 (0.020 to 1 µM) was “did not bind”. Also, the KD result at Hsp90 (setting [2]) is “No binding”.
With `N[C@@H](Cc1c[nH]c2ccccc12)C(=O)NCc1cn([C@H]2CCN3C[C@H](O)[C@@H](O)[C@@H]3C2)nn1` [Compound 6], on Hsp90 (setting [2]), the dissociation constant (Kd) was 306.8 ± 2.9 nM and the koff was 4.12±0.81 10^-3 1/s.
